pIC50: −log10 of the molar value.

In the test the target is Tyrosine-protein kinase BTK (Homo sapiens, UniProt Q06187). The experiment in a line: Enzymatic Activity Assay. Conditions: 25 °C.
Sequence of Tyrosine-protein kinase BTK (Q06187 whole entry): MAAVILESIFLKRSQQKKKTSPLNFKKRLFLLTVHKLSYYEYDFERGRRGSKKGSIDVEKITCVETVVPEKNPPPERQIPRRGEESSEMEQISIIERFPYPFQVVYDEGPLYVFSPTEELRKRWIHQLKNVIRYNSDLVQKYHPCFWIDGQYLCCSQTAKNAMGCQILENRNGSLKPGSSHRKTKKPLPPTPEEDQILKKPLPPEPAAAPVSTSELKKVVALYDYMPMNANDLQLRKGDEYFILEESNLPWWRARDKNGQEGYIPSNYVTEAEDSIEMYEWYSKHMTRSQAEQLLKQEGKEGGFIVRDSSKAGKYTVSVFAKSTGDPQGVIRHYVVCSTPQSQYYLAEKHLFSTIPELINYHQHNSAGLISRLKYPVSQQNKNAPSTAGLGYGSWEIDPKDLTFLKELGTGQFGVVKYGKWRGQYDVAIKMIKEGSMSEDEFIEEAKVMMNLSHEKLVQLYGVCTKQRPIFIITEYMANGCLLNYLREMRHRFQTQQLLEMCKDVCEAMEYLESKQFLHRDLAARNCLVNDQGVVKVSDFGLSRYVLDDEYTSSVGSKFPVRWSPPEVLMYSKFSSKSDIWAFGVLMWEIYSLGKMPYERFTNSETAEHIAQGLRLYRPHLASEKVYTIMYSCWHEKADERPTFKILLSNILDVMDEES

Procedure: A Caliper-based kinase assay (Caliper Life Sciences, Hopkinton, Mass.) was used to measure inhibition of Btk kinase activity of a compound of Formula (IA), (I′) or (I). […] The reaction was then terminated with EDTA, final concentration 20 mM and the phosphorylated reaction product was quantified on a Caliper Desktop Profiler (Caliper LabChip 3000).

`COc1cc(-c2nn(C3CCCN(C(=O)C(C#N)=CC4CC4)C3)c3ncnc(N)c23)ccc1Oc1ccc(Cl)c(Cl)c1` (stereo unspecified) [US9090621, 5] had a pIC50 of 9.00.

Usually pIC50 stands for the negative decadic logarithm of the IC50, by convention in mol/L.

For the origin of these results see BindingDB's records for patent US9090621 (Principia Biopharma, 2015).
